Like-named read-outs stand apart in the source and are kept apart here.
Columns and labels:
[1] = system: RM-9 prostate cancer cells
Experimental: (§1) Horizontal axis=log(M); vertical axis=% viability relative to control. […] (i) vehicle (ii) 128 μM Eliglustat (iii) 64 μM PDMP (iv) 64 μM PPMP. Statistical significance was determined by 2-sided student t-test comparing the aggregate intensities of individual lipid species corresponding to the respective lipid domain.
(§2) To test this hypothesis, the efficacy of PDMP, PPMP and eliglustat three different inhibitors of glucosylceramide synthase (also known as UGCG; UDP-glucose:ceramide glucosyltransferase), a rate-limiting enzyme in glycosphingolipid metabolism, for reducing viability of RM-9 and PC-3M prostate cancer cells in vitro was then evaluated.

[2] = system: PC-3M prostate cancer cells
Experimental: as §1, §2

[3] = system: RM-9 prostate cancer cells; experiment: Lipidome alterations after short-term pharmacological inhibition of UGCG in RM-9 cells; format: cell-based, mouse; settings: 6 hr, 128 μM Eliglustat, 64 μM PDMP, 64 μM PPMP
Text: (§3) FIGS. 16A, 16B, and 16C show (16A) the induction of autophagy/mitophagy by exposure of PC-3M prostate cancer cells to Eliglustat. (i) cytotoxicity (ii) apoptosis at 4 hrs (iii) apoptosis at 24 hrs. N=3 biologically independent replicates per experimental condition. Values represent log(relative fluorescence units)±StDev. Also shown are volcano plots illustrating differences in annotated lipid species stratified by lipid domains in (16B) PC-3M and (16C) RM-9 prostate cancer cells following 6 hr challenge with 128 μM Eliglustat. (i) acylcarnitines (ii) cardiolipins (iii) diacylglycerols (iv) ether lysophospholipids (v) ether phospholipids (vi) lysophospholipids (vii) phospholipids (viii) cholesterol esters (ix) triacylglycerols (x) sphingomyelins. N=3 biologically independent replicates per experimental condition.
(§4) Sample Extraction Following transfections, cell lysates were washed 2× with pre-chilled 0.9% NaCl followed by addition of 2.5 mL of pre-chilled 3:1 isopropanol:ultrapure water. Cells were scraped using a 25 cm Cell Scraper (Sarstedt) in extraction solvent and transferred to a 15 mL conical tube (Eppendorf). Samples were briefly vortexed followed by centrifugation at 4° C. for 10 min at 2,000×g. Thereafter, 1.2 mL of metabolite extracts were transferred to 1.5 mL Eppendorf tubes and stored in −20° C. until metabolomic analysis.
(§5) Complex Lipids Pre-aliquoted EDTA plasma samples (10 μL) were extracted with 30 μL of LCMS grade 2-propanol (ThermoFisher) in a 96-well microplate (Eppendorf). Plates were heat sealed, vortexed for 5 min at 750 rpm, and centrifuged at 2000×g for 10 minutes at room temperature. The supernatant (10 μL) was carefully transferred to a 96-well plate, leaving behind the precipitated protein. The supernatant was further diluted with 90 μL of 1:3:2 100 mM ammonium formate, pH 3 (ThermoFisher): acetonitrile: 2-propanol and transferred to a 384-well microplate (Eppendorf) for lipids analysis using LCMS. […]

[4] = system: PC-3M prostate cancer cells; experiment: Lipidome alterations after short-term pharmacological inhibition of UGCG in PC-3M cells; format: cell-based, human; settings: 6 hr, 128 μM Eliglustat, 64 μM PDMP, 64 μM PPMP
Text: as §3, §4, §5

[5] = system: PC-3M prostate cancer cells; experiment: Cytotoxicity and apoptosis of PC-3M cells exposed to eliglustat; format: cell-based
Experimental: as §2

PC-3M cells [6] = experiment: Viability (MTS assay) of PC-3M cells treated with eliglustat after CAV1 knockdown or Cav-1 blocking antibody; format: cell-based, human; settings: 128 μM eliglustat
Experimental: (§6) FIGS. 18A and 18B show (18A) the viability (MTS assay) of PC-3M cells treated with 128 μM eliglustat after (left) knockdown of CAV1: or (right) following pre-treatment with Cav-1 monoclonal blocking antibody: (i) siCtrl (ii) siCAV1-1 (iii) siCAV1-2 (iv) IgG=vehicle (v) IgG+Eliglustat (vi) abCAV1+Vehicle (vii) abCAV1+Eliglustat. (18B) Viability (MTS assay) of LNCaP cells treated with 64 μM eliglustat following Cav-1 overexpression.

RM-9 tumors = experiment: RM-9-luciferase subcutaneous tumor model in C57BL/6N mice; format: in vivo, mouse
Experimental: FIGS. 19A, 19B, 19C, and 19D show the efficacy of eliglustat in an in vivo mouse model. (19A) Relative fluorescence units±SEM of RM-9 tumors following daily intraperitoneal injection with either (i) saline (n=23) or (ii) eliglustat (60 mg/kg) (n=9). (19B) Tumor Volume±SEM following treatment with either saline (n=15) or eliglustat (60 mg/kg) (n=8). Statistical significance was determined by 2-sided Wilcoxon-rank sum test. (19C) Representative IVIS images following treatment. (19D) Relative abundance (area units±StDev) of glycosphinoglipids in RM-9 tumors following treatment.
FIGS. 20A, 20B, 20C, 20D, 20E, and 20F show quantitative analyses derived from immunohistochemistry staining for (20A) Cav-1, (20B) BrdU-TUNEL, (20C) PCNA, (20D) HMGB1 and (20E) LC3B in RM-9 tumors following treatment with either saline (n=6-8 mice) or eliglustat (n=7 mice). Vertical axes are (20A) Cav-1 staining score, (20B) apoptotic bodies/fd, (20C) % of PCNA labeling, (20D) % of cytoplasmic HMGB1, and (20E) LC-3B positive cells/fd. Statistical significance was determined by 2-sided Wilcoxon rank sum test. Also shown is (20F) volcano plot illustrating fold change in individual annotated lipid species stratified by lipid domain in plasma of RM-9 bearing C57BL/6N mice or control mice. (i) acylcarnitines (ii) ceramides (iii) cholesterol esters (iv) diacylglycerols (v) free fatty acids (vi) glycosphingolipids (vii) lysophospholipids (viii) oxylipins (ix) phospholipids (x) sphingomyelins (x) triacylglycerols.
Inhibition of tumor growth by eliglustat was next examined. RM-9 cells harbor driver oncogenic RAS and MYC genes which model RAS-MAPK pathway activation and MYC-driven transcriptional activities which are associated with aggressive primary prostate cancer. RM-9-luciferase cells were subcutaneously implanted into C57BL/6N mice. RM-9 tumor growth was suppressed by eliglustat (FIGS. 19A, 19B, and 19C). […] In addition, plasma Cav-1 levels tended to be elevated in RM-9 tumor-bearing mice compared to control mice.

PC-3M cells [7] = experiment: Mitophagy markers and mitochondrial morphology in PC-3M cells treated with eliglustat; format: cell-based, human
Experimental: FIGS. 17A, 17B, 17C, and 17D show representative confocal microscopy images for PC-3M cells following 24 hr pre-transfection with (i) CellLight Mitochondria-RFP (leader sequence of E1 alpha pyruvate dehydrogenase) or (ii) CellLight Lysosome-GFP (lysosomal associated 1052 membrane protein 1) followed by acute (6 hr) treatment with either (17A) vehicle or (17C) Eliglustat (128 μM). (17B) and (17D) correspond to enlargements of features from (17A) and (17C), respectively. (iii) merged images.

LNCaP cells = experiment: Viability (MTS assay) of LNCaP cells treated with eliglustat following Cav-1 overexpression; format: cell-based, human; settings: 64 μM eliglustat
Experimental: as §6

[8] = immunohistochemistry, RM-9 tumors

Structure (SMILES)	cytotoxicity (viability relative to control) [1]	cytotoxicity (viability relative to control) [2]	alterations in the lipidome [3]	alterations in the lipidome [4]	mechanism of acute cytotoxic effects (cytotoxicity, apoptosis at 4 hrs and 24 hrs) [5]	cytotoxicity (viability relative to control) ([1]; RM-9 cells, 48 hour treatment)	cytotoxicity (viability relative to control) ([2]; PC-3M cells, 48 hour treatment)	sensitivity to eliglustat (viability, MTS) after knockdown of CAV1 (PC-3M cells [6])	RM-9 tumor growth (RM-9 tumors; C57BL/6N mice, 60 mg/kg daily intraperitoneal injection)	glycosphingolipids in RM-9 tumor tissue (RM-9 tumors; C57BL/6N mice, 60 mg/kg, metabolomics of tumor tissue)	BrdU-TUNEL staining in tumor tissue (RM-9 tumors; [8])	Cav-1 staining in tumor tissue (RM-9 tumors; [8])	HMGB1 staining in tumor tissue (RM-9 tumors; [8])	LC3B staining in tumor tissue (RM-9 tumors; [8])	PCNA staining in tumor tissue (RM-9 tumors; [8])	protein expression of mitophagy-associated marker LC3B-II (PC-3M cells [7])	protein expression of Parkin and PINK1 (PC-3M cells [7]; acute (6 hr) treatment)	mitochondrial morphology (PC-3M cells [7]; acute (6 hr) treatment, 128 μM)	anti-cancer effect (viability, MTS) following Cav-1 overexpression (LNCaP cells)
CCCCCCCCCC(=O)NC(CN1CCOCC1)C(O)c1ccccc1 (stereo not shown) [PDMP, 1-phenyl-2-decanoylamino-3-morpholino-1-propanol]	dose-dependent cytotoxicity	dose-dependent cytotoxicity	accumulation of intracellular ceramides, acylcarnitines, lysophospholipids and diacylglycerols and reductions in glycosphingolipids, phospholipids and triacylglycerols	accumulation of intracellular ceramides, acylcarnitines, lysophospholipids and diacylglycerols and reductions in glycosphingolipids, phospholipids and triacylglycerols															
CCCCCCCCCCCCCCCC(=O)N[C@H](CN1CCOCC1)[C@H](O)c1ccccc1 [PPMP, D-threo-1-phenyl-2-hexadecanoylamino-3-morpholino-1-propanol]	dose-dependent cytotoxicity	dose-dependent cytotoxicity	accumulation of intracellular ceramides, acylcarnitines, lysophospholipids and diacylglycerols and reductions in glycosphingolipids, phospholipids and triacylglycerols	accumulation of intracellular ceramides, acylcarnitines, lysophospholipids and diacylglycerols and reductions in glycosphingolipids, phospholipids and triacylglycerols															
CCCCCCCC(=O)N[C@H](CN1CCCC1)[C@H](O)c1ccc2c(c1)OCCO2 [eliglustat]			accumulation of intracellular ceramides, acylcarnitines, lysophospholipids and diacylglycerols and reductions in glycosphingolipids, phospholipids and triacylglycerols	accumulation of intracellular ceramides, acylcarnitines, lysophospholipids and diacylglycerols and reductions in glycosphingolipids, phospholipids and triacylglycerols	non-apoptotic mechanism	dose-dependent cytotoxicity	dose-dependent cytotoxicity	further sensitized	suppressed	reductions in glycosphingolipids	statistically significantly increased	statistically significantly reduced	statistically significantly increased	statistically significantly increased	statistically significantly reduced	increased	increased	loss of the branched, fused-like-mitochondrial architecture and accumulation of punctate mitochondria co-localized with the lysosome	reduced the anti-cancer effects

From patent US20230358751A1, “METHODS FOR THE DETECTION AND TREATMENT OF PROSTATE CANCER” (Board of Regents, The University of Texas System, priority 2020, published 2023)
